From patent US11229635B2, “Method of treating fibrosis” (BCN Biosciences L.L.C., priority 2016, dated 2022) come the findings set out here.

Series [1] relates to hematopoietic system. Nature of the series: Recovery of the hematopoietic system following 6 Gy irradiation. The class given is in vivo. The conditions noted are these: C3H mice, s.c. at 24, 48, 72, 96, and 120 hrs. The text has this: Recovery of the hematopoietic system following 6 Gy irradiation of C3H mice (n=4) with BCN057 treatment (s.c.) at 24, 48, 72, 96, and 120 hrs. RBC- red blood cells (M/uL), HB-hemoglobin (g/dL), and HCT-hematocrit (%). B: recovery of the hematopoietic system following 6 Gy irradiation of C3H mice (n=4) with BCN057 treatment (s.c.) at 24, 48, 72, 96, and 120 hrs. WBC-white blood cells, NE-neutrophils, LY-lymphocytes. C: platelet (PLT) recovery following 6 Gy irradiation of C3H mice (n=4) with BCN057 treatment (s.c.) at 24,48,72,96, and 120 hrs; p<0.05 with a 1-tail, Student t-test.

Series [2] deals with radiation dermatitis (erythema, edema). Nature of the series: Draize scoring of dermal radiation sites, dermal dosing 10 mg/mL Day 0 to 6. It is filed as in vivo. The conditions noted are these: Avg of Days 1-6 and 8.
Series [3] deals with bone marrow hematopoietic stem cells (HSCs). Nature of the series: Total body irradiation survival (hematopoietic suppression). The class given is in vivo, C3H/HeN mice. The following applies: 7.75 Gy TBI, 30 day; male 50 mg/kg, female 25 mg/kg C3H/HeN mice. As to the method: FIG. 8A-C: (A) Kaplan Meier Plot of Male C3H/HeN mice 7.75Gy 30 Day TBI (n=30) 50 mg/kg BCN057. (B). Kaplan Meier Plot of Female C3H/HeN mice 7.75Gy 30 Day TBI (n=10) 25 mg/kg BCN057. (C) Cytokine Profile in Plasma Male C3H/HeN mice 7.75Gy TBI Day 8 receiving BCN057.
7.75 Gy radiation is used to ablate bone marrow hematopoietic stem cells (HSCs) in these strains of mice. […] Lethality from bone marrow suppression occurs in the 14-25 day region due to the life cycle of approximately 2 weeks for RBC and inability to replace them without HSCs
7.73 Gy radiation is used to ablate bone marrow HSCs in the C3H strain of mice.

In series [4] the test system is plasma cytokines. Put plainly: Mouse Cytokine panel ELISA Array of plasma after irradiation. The class given is in vivo. The conditions noted are these: irradiated mice (7 G), 200 mg/kg SC Day 1 to 7, blood Day 8. As to the method:
Mice were irradiated on Day 0. Animals were dosed with drug for 7 consecutive days (Day 1 to 7) at 200 mg/kg SC, with terminal blood collection on Day 8. Plasma from 3 mice was pooled for each condition Y axis represents relative absorbance units.
The plasma was tested with the Mouse Cytokine panel ELISA Array panel—by SIGNOSIS™

The test system of series [5] is blood platelets. Put plainly: Platelet count in normal mice. It is filed as in vivo, mouse. The conditions noted are these: eight days oral or subcutaneous, 75-800 mg/kg/day. On the procedure: Normal mice were treated with BCN057 for eight days by oral administration or subcutaneous injection. Dose groups included 75 mg/kg/day, 200 mg/kg/day, 400 mg/kg/day, 500 mg/kg/day, and 800 mg/kg/day

The nature of series [6]: Solubility of BCN057 in aqueous formulations. It is filed as physicochemical. On the procedure: Several formulations were developed to solubilize BCN057 in aqueous solution at physiologically compatible pHs. These include 100 mM methanesulfonic acid/10% povidone (PVP); 100 mM MSA/2% benzyl alcohol/2% N-methylpyrrolidone (NMP); and, 100 mM MSA/10% ethanol/1% Poloxamer 188.
Several suitable formulations were developed for intravenous, subcutaneous and oral delivery of therapeutic levels of BCN057. These include 30 wt % Captisol (SBE-beta-CD) and 100 mM MSA at pH 4.1 (adjusted with 1.0 N NaOH).

Series [7] relates to cancer cell lines (leukemia, breast, CNS, colon, melanoma, non-small cell lung, ovarian, prostate, renal). Put plainly: NCI cancer cell line growth screen (percent growth over 48 h, sulforhodamine B). It is filed as cell-based.
Series [8] has as its system canonical Wnt-β catenin signaling. Nature of the series: TCF/LEF luciferase reporter assay in HEK293 cells. It is filed as cell-based. The following applies: 10 mM, 24 h, positive control. On the procedure: LiCl (10 mM) treatment was used as positive control for luciferase activity. Luciferase activity was determined after 24 h using a Dual-Luciferase® Reporter Assay System (Promega) as per manufacturer's protocol. HEK293 cells containing a FOPFlash construct were used as a negative control.
A general note: In a reporter assay the amount or activity of a reporter protein is the signal.

`COc1ccc2cc(-c3nc4ccc(C)cn4c3NCc3ccco3)c(=O)[nH]c2c1` [BCN057, 3-(3((furan-2-ylmethyl)ammo)-6-methylimidazo[1,2-α]pyridine-2-yl)-6-methoxyquinolin-2(1H)-one]: the “hematopoietic recovery (RBC, HB, HCT, WBC, NE, LY, PLT)” value in series [1] was “evidence of improving hematopoietic recovery”. In series [2], the “Average Draize score Edema” value is recorded as 0, the “Average Draize score Edema Site 2” value is 0, the “Average Draize score Edema Site 3” value is listed as 0.5714 and the “Average Draize score Edema Site 4” value is listed as 0. In addition, in series [2], the “Average Draize score Edema Site 5” value came out at 0.4286, the “Average Draize score Edema Site 6” value stood at 0, the “Average Draize score Erythema Site 2” value was determined as 0.1429 and the “Average Draize score Erythema Site 3” value came to 1.286. In series [2], the “Average Draize score Erythema Site 4” value is on record as 0.1429, the “Average Draize score Erythema Site 5” value came to 1.429 and the “Average Draize score Erythema Site 6” value was found to be 0.4286. Also, in series [3], the “lethality from bone marrow suppression” value is reported as “sufficient to prevent lethality from bone marrow suppression”. Moreover, in series [4], the plasma cytokine profile entry is listed as “restores the cytokine profile to similar to that of the control”. Besides, the platelet production entry in series [5] is reported as “induces platelet production in a dose dependent fashion”. The solubility entry in series [6] (30 wt % Captisol (SBE-beta-CD) and 100 mM MSA, up to pH 4.1) is “excellent solubility”. Further, in series [6] (addition of 100 mM lactic acid to the MSA mixtures), the solubility result was “improved solubility”. Further, the “cancer cell growth vs control (no drug)” value in series [7] (10 uM, 48 h, Leukemia, prostate and kidney cancer) was “inhibitory”. The “cancer cell growth vs untreated control” value in series [7] (breast cancer, lung carcinoma, prostate, CNS, melanoma, ovarian, renal and colon cancer lines (FIG. 2)) is given as “susceptible”.
For `[Cl-].[Li+]` [LiCl, reference compound], the luciferase activity entry in series [8] is recorded as “significantly increased luciferase activity”.
